Data as given in EP4458977A1, “SELF-ASSEMBLING PEPTIDE AMPHIPHILES AS RETROVIRAL TRANSDUCTION ENHANCERS” (Max-Planck-Gesellschaft zur Förderung der Wissenschaften …, priority 2023, dated 2024).
Where “and” joins values, the source holds several entries; their conditions need not be identical. Identical values can stand only once. Entries after “also recorded” stand apart in the source; their conditions may differ. Like-named read-outs stand apart in the source and are kept apart here. Where a SMILES comes first, the peptide text is derived from it. Where no end group is shown, it is not given here. The star is where a group is joined. X2 = CC/C=C\C/C=C\C/C=C\CCCCCCCC(=O)*; Palmitoyl = CCCCCCCCCCCCCCCC(=O)*

Tests used:
[1] = ATR-FT-IR determination of β-sheet content; assay type: physicochemical; conditions: for β-sheet amount: 1 mg/mL in PBS lyophilized, integral at 1630 cm^-1 relative to 1650-1700 cm^-1; for β-sheet content / %: peak integration of parallel β-sheet at 1630 cm-1, 2nd derivative of ATR-IR spectra
Protocol: ATR-FT-IR: ATR-IR spectra acquisition and the calculation of β-sheet content were conducted according prior art procedures. Briefly, FT-IR spectra of solid samples were recorded after lyophilization of fibril solutions using a Bruker Tensor II spectrometer equipped with a diamond crystal as ATR element with a spectral resolution of 2 cm^-1, each spectrum was an average of 64 scans. The data was processed with Origin software. β-sheet amount was determined by calculating the integral of the peak at 1630 cm-1 (β-sheet) relative to the integral between 1650-1700 cm-1 (native structure) from the 2nd derivative of the FT-IR spectra.

[2] = Zeta-potential measurement (dynamic light scattering); assay type: physicochemical
[3] = Fluorescence microscopy of ThT-stained fibrils (µm-sized aggregates); assay type: physicochemical; conditions: for fluorescent, µm-sized aggregates (ThT staining): 1 mg/mL stained with 50 µM ThT
Protocol: (§1) Transmission electron microscopy (TEM) measurements, Thioflavin (ThT), zeta-potential measurements for fibril characterization were prepared and conducted according to prior art procedures. […] Fibrils were defined as distinct, if no visible structures could be identified in fluorescence and brightfield microscopy.
Fluorescence microscopy: 1 µL Fibrils (1 mg mL^-1) were stained with 9 µL, 50 µM ThT. 10 µL of the stained fibrils (0.1 mg mL^-1) were placed on a microscopy glass. Fluorescence microscopy measurements were performed on a Leica DMi8 microscope with 10x air objective and equipped with a Leica MC170 HD camera with a filter setting λem = 527/30 nm upon excitation at λex = 480/40 nm) and processed with the Leica LASX software.

[4] = TEM of peptide assemblies (fibril formation / assembly); assay type: physicochemical; conditions: for TEM morphology (in words): 1 mg/mL in PBS; for Assembly without hydrophob residue: corresponding peptide without hydrophobic moiety; for Assembly: peptide amphiphile
Protocol: The peptides were predissolved in DMSO to a concentration of 10 mg/mL. The fibril formation was induced by further diluting the solution to a final incubation concentration of 650 µM or 1 mg/mL in PBS as indicated in the text and incubated for 1 d (1 day) at rt (room temperature, 20 °C - 25 °C). Other concentrations as described herein were achieved by further dilution of preformed fibrils.
as §1

HIV-1 = conditions: for Infectivity enhancing N fold at 1.3 µM: relative to virus only; for enhancement of HIV-1 infection / transduction (in words): 6.5 µM, 1.3 µM, 0.26 µM;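 for all read-outs here: TZM-bl reporter cells exposed to HIV-1 with peptide fibrils, infection read out as β-galactosidase luminescence, compared with virus alone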
Protocol: HIV-1 Infection Assay with TZM-bl cells: The effect of peptide fibrils on HIV-1 infection was studied via a luminescence assay for β-galactosidase, which was reported by TZM-bl cells upon infection. The HIV-1 infection assay was conducted in three technical replicates and repeated in three independent experiments unless stated otherwise.

HeLa cells = assay: Confocal laser scanning microscopy and degradation study with PA library and HeLa cells; assay type: cell-based; conditions: for association with cellular membranes: 2 µg added to 20.000 HeLa cells, 30 min; for degradability (in words) / Degradability / % (rel. to initial particles > 10 µm^2): HeLa cells; for degradability (in words): 3 days; for Degradability / % (rel. to initial particles > 10 µm^2): 3 d relative to 30 min
Protocol: In general, the procedure for determine whether a PA is degraded or not, is conducted by confocal laser scanning microscopy of Proteostat stained PAs which are added to Hela cells (2 µg peptide added to 20.000 cells). Microscopy is conducted at day 0 (d0, after 30 min of incubation) and at day 3 (d3, after 72 h of incubation). The number of aggregates >10 µm^2 is counted via 3D object counter in imaged in an area of 1008 µm × 1008 µm.
A PA is considered to be degradable if the number and the size of aggregates are reduced after 3 days. The efficiency is determined by the percentual degradation (aggregate number at d3 / aggregate number at d0). For the number of aggregation three technical replicates were evaluated for each sample. A large deviation represents a nonhomogeneous spatial distribution of aggregates.
Confocal laser scanning microscopy and degradation study with PA library and HeLa cells: Confocal laser scanning microscopy studies were performed for the visualization of the cell-PA interaction. HeLa cells were seeded one day prior to conducting the assay (20,000/well) in an 8-well IBIDI slide. […] The nucleus of the HeLa cells was stained with Hoechst 33342 (NucBlue™, Thermo Fisher Scientific). The peptide solution mixture was transferred to the HeLa cells and incubated for 30 min at 37°C before washing three times with PBS. […] For the evaluation of aggregate degradation, the samples were further incubated at 37°C for 3 d and analyzed without any additional washing step. […] The number of aggregates were determined by counting aggregates larger than the threshold 10 µm^2 in an area of 1008 × 1008 µm and repeated in three technical triplicates.

[5] = Zeta-potential measurement (dynamic light scattering); assay type: physicochemical; conditions: for Zeta Potential / mV: 1 mg/mL, PBS
Protocol: Zeta-potential: 60 µL of the peptides (1 mg mL-1) were diluted in 600 µL, 1 mM KCI solution and placed in a disposable folded capillary cuvette. All zeta-potential measurements were conducted by dynamic light scattering technology (Zetasizer, Malvern Instruments) and in triplicates for each sample. The derived count rate of the zeta potential measurement was used as information on the light scattering intensity and turbidity of the sample as a further indicator for microscopic aggregation.

[6] = Thioflavin T (ThT) fluorescence assay; assay type: physicochemical; set-up: key to ThT: + = ThT active; - = no ThT fluorescence observed; conditions: ThT fluorescence; 1 mg/mL, PBS
Protocol: as §1, with “microscopy. A peptide fibril was considered as ThT-active if the fluorescence intensity was at least twice as strong compared to the control (PBS containing 10% DMSO).” for “microscopy.”

| Compound | β-sheet amount [1] [%] | Zeta-Potential / mV [2] [mV] | fluorescent, µm-sized aggregates (ThT staining) [3] | TEM morphology (in words) [4] | Assembly without hydrophob residue [4] | Assembly [4] | enhances infectivity at 1.3 µM concentration, times more efficient compared to virus only infection (HIV-1) [times] | Infectivity enhancing N fold at 1.3 µM (HIV-1) | association with cellular membranes (HeLa cells) | degradability (in words) (HeLa cells) | Degradability / % (rel. to initial particles > 10 µm^2) (HeLa cells) [%] | infectivity enhancement at 1.3 µM concentration compared to virus only infection (in words) (HIV-1) | enhancement of HIV-1 infection / transduction (in words) (HIV-1) | β-sheet content / % [1] [%] | formation of µm-sized aggregates in aqueous medium / PBS (in words) [3] | ThT [6] | Zeta Potential / mV [5] | also measured |
| --- | --- | --- | --- | --- | --- | --- | --- | --- | --- | --- | --- | --- | --- | --- | --- | --- | --- | --- |
| CCCCCCCCCCCCCCCC(=O)N[C@@H](C)C(=O)NCC(=O)NCC(=O)N[C@@H](CCCNC(=N)N)C(=O)N[C@H](C(=O)N[C@@H](CCCCN)C(N)=O)C(C)C [Pat18, C16-AGGRVK-NH2] (Palmitoyl-AGGRVK-NH2) | 56 | 15.9 | no fluorescent, µm-sized aggregates | fibrillar morphologies | No | Yes | 3 | 3±1 N fold |  |  |  |  |  |  |  |  |  |  |
| CCCCCCCCCCCCCCCC(=O)N[C@H](C(=O)N[C@H](C(=O)N[C@@H](CCC(N)=O)C(=O)N[C@@H](CCCCN)C(=O)N[C@H](C(=O)N[C@@H](CCCCN)C(N)=O)[C@@H](C)CC)[C@@H](C)CC)[C@@H](C)CC [Pat15, C16-IIQKIK-NH2] (Palmitoyl-IIQKIK-NH2) | 45 | 12.6 | fluorescent, µm-sized aggregates | fibrillar morphologies | No | Yes | 4 | 4±1 N fold | association with cellular membranes | degradable PA | -28 |  |  |  |  |  |  | Degradability / % (rel. to initial particles > 10 µm^2) (HeLa cells; listed as Pat 15): 28%; aggregate number decreases / degraded in presence of HeLa cells within 3 days (HeLa cells; d3 relative to d0): 28%; Infectivity enhancing N fold at 1.3 µM (HIV-1; listed as Pat 15): 4 N fold |
| CC/C=C\C/C=C\C/C=C\CCCCCCCC(=O)N[C@H](C(=O)N[C@H](C(=O)N[C@H](C(=O)N[C@@H](C)C(=O)N[C@@H](C)C(=O)N[C@@H](C)C(=O)N[C@@H](CCCCN)C(=O)N[C@@H](CCCCN)C(=O)N[C@@H](CCCCN)C(N)=O)C(C)C)C(C)C)C(C)C [Pat9] (X2-VVVAAAKKK-NH2) |  |  |  | failed to form fibrils in aqueous medium | No | No |  | 1±0 N fold |  |  |  |  |  |  |  |  |  | zeta-potential (in words) [5]: almost neutral zeta-potential |
| CCCCCCCCCCCCCCCC(=O)N[C@@H](CC(C)C)C(=O)N[C@@H](CC(N)=O)C(=O)NCC(=O)NCC(=O)N[C@H](C(=O)N[C@@H](CCCCN)C(=O)N[C@@H](CCCCN)C(N)=O)C(C)C [Pat19, C16-LNGGVKK-NH2] (Palmitoyl-LNGGVKK-NH2) | 34 | 19.4 | fluorescent, µm-sized aggregates | fibrillar morphologies | No | Yes | 6 | 6 N fold and 6±1 N fold | association with cellular membranes | degradable PA | 48 |  |  |  |  |  |  | aggregate number decreases / degraded in presence of HeLa cells within 3 days (HeLa cells; d3 relative to d0): 48% |
| CCCCCCCCCCCCCCCC(=O)N[C@@H](CCCCN)C(=O)NCC(=O)N[C@H](C(=O)N1CCC[C@H]1C(=O)NCC(=O)N[C@H](C(=O)NCC(=O)N[C@@H](CCCCN)C(N)=O)C(C)C)C(C)C [Pat25] (Palmitoyl-KGVPGVGK-NH2) | 0 |  | fluorescent, µm-sized aggregates | not forming fibrils; also recorded: no fibrillar morphologies | Yes | No |  | 1±0 N fold | no association with cellular membranes |  |  | do not enhance infectivity | no infectivity enhancement can be observed |  |  |  |  |  |
| CCCCCCCCCCCCCCCC(=O)N[C@@H](CCCCN)C(=O)N[C@H](C(=O)N[C@H](C(=O)N[C@@H](CO)C(=O)N[C@@H](Cc1ccccc1)C(=O)N[C@@H](CCCCN)C(N)=O)[C@@H](C)CC)[C@@H](C)CC [Pat32, C16-KIISFK-NH2] (Palmitoyl-KIISFK-NH2) | 46 |  | fluorescent, µm-sized aggregates | fibrillar morphologies | No | Yes |  | 2±1 N fold | association with cellular membranes | cannot be degraded; also recorded: not efficiently degradable; also recorded: non-degradable PA | -84 | does not enhances infectivity |  |  |  |  |  | aggregate number increases (HeLa cells; d3 relative to d0): 84% |
| VVVAAAEEE-NH2 [P3] |  |  |  | amorphous aggregates; also recorded: non-fibrillar amorphous aggregates |  |  |  |  |  |  |  |  |  | 46 | does not form µm-sized aggregates in PBS | - | -21.2 ± 1.5 mV |  |
| CCCCCCCCCCCCCCCC(=O)N[C@@H](Cc1c[nH]c2ccccc12)C(=O)N[C@@H](CCC(=O)O)C(=O)N[C@@H](C)C(=O)N[C@@H](CC(C)C)C(=O)N[C@@H](CCCCN)C(=O)N[C@@H](CCCCN)C(N)=O [Pat17, C16-WEALKK-NH2] (Palmitoyl-WEALKK-NH2) | 38 |  | fluorescent, µm-sized aggregates | not forming fibrils; also recorded: amorphous aggregate morphology | No | No |  | 1±0 N fold | no association with cellular membranes |  |  | does not enhance infectivity | no infectivity enhancement can be observed |  |  |  |  |  |
| VVVAAAKKK-NH2 [P1] |  |  |  | amorphous aggregates; also recorded: non-fibrillar amorphous aggregates |  |  |  |  |  |  |  |  | inactive | 48 | does not form µm-sized aggregates in PBS | - | -2.3 ± 0.4 mV |  |
| FQFKFKC-NH2 [P2, FQFKFKC-NH2] |  |  |  | Formation of fibrils; also recorded: twisted fibrils |  |  |  |  |  |  |  |  | inactive | 46 | does not form µm-sized aggregates in PBS | - | +10.1 ± 3.0 mV |  |
